Measurements published in patent US20020052295A1, “Diacyl derivatives of propylene diamine having herbicidal activity” (priority 1999, published 2002).

Legend:
[1] = tested on: SORHA; assay: Pre-emergence herbicidal activity on SORHA (johnsongrass, seedling); format: in vivo, Sorghum halepense
How it was run: (§1)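 In this greenhouse test, compound in acetone/water (50:50) was put on the soil surface directly after seeds were sown and covered. Plants received overhead irrigation and were held at 30/21 °C day/night. About 14 days on, inhibition relative to untreated controls gave GR80.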

[2] = tested on: PANDI; assay: Post-emergence herbicidal activity on PANDI (fall panicum); format: in vivo, Panicum dichotomiflorum; details: post-emergence spray; lowest tested rate with 80% or greater inhibition; about 14 days after treatment
How it was run: (§2)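 Seedlings 9–14 days after planting were sprayed with compound in 50:50 acetone/water at 3,100 l/ha and 511 kPa, with unsprayed controls. Plants were then held in a greenhouse at 30/21° C. day/night. Percent inhibition versus controls was scored about 14 days after treatment.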

[3] = tested on: SETFA; assay: Post-emergence herbicidal activity on SETFA (giant foxtail); format: in vivo, Setaria faberi; details: post-emergence spray; lowest tested rate with 80% or greater inhibition; about 14 days after treatment
How it was run: as §2

[4] = tested on: SETFA; assay: Pre-emergence herbicidal activity on SETFA (giant foxtail); format: in vivo, Setaria faberi
How it was run: as §1

[5] = tested on: PANDI; assay: Pre-emergence herbicidal activity on PANDI (fall panicum); format: in vivo, Panicum dichotomiflorum
How it was run: as §1

[6] = tested on: POROL; assay: Pre-emergence herbicidal activity on POROL (common purslane); format: in vivo, Portulaca oleracea
How it was run: as §1

[7] = tested on: CONAR; assay: Pre-emergence herbicidal activity on CONAR (field bindweed); format: in vivo, Convolvulus arvensis
How it was run: as §1

[8] = tested on: SORHA; assay: Post-emergence herbicidal activity on SORHA (johnsongrass, seedling); format: in vivo, Sorghum halepense; details: post-emergence spray; lowest tested rate with 80% or greater inhibition; about 14 days after treatment
How it was run: as §2

[9] = tested on: ECHCG; assay: Pre-emergence herbicidal activity on ECHCG (barnyardgrass); format: in vivo, Echinochloa crus-galli
How it was run: as §1

[10] = tested on: CONAR; assay: Post-emergence herbicidal activity on CONAR (field bindweed); format: in vivo, Convolvulus arvensis; details: post-emergence spray; lowest tested rate with 80% or greater inhibition; about 14 days after treatment
How it was run: as §2

[11] = tested on: BRAPP; assay: Post-emergence herbicidal activity on BRAPP (broadleaf signalgrass); format: in vivo, Brachiaria platyphylla; details: post-emergence spray; lowest tested rate with 80% or greater inhibition; about 14 days after treatment
How it was run: as §2

[12] = tested on: ECHCG; assay: Post-emergence herbicidal activity on ECHCG (barnyardgrass); format: in vivo, Echinochloa crus-galli; details: post-emergence spray; lowest tested rate with 80% or greater inhibition; about 14 days after treatment
How it was run: as §2

[13] = tested on: DIGSA; assay: Post-emergence herbicidal activity on DIGSA (large crabgrass); format: in vivo, Digitaria sanguinalis; details: post-emergence spray; lowest tested rate with 80% or greater inhibition; about 14 days after treatment
[14] = tested on: AMARE; assay: Pre-emergence herbicidal activity on AMARE (redroot pigweed); format: in vivo, Amaranthus retroflexus
How it was run: as §1

[15] = tested on: SOLNI; assay: Post-emergence herbicidal activity on SOLNI (black nightshade); format: in vivo, Solanum nigrum; details: post-emergence spray; lowest tested rate with 80% or greater inhibition; about 14 days after treatment
How it was run: as §2

[16] = tested on: ABUTH; assay: Pre-emergence herbicidal activity on ABUTH (velvetleaf); format: in vivo, Abutilon theophrasti
How it was run: as §1

[17] = tested on: CIRAR; assay: Pre-emergence herbicidal activity on CIRAR (canada thistle, seedling); format: in vivo, Cirsium arvense
How it was run: as §1

[18] = tested on: PANMI; assay: Post-emergence herbicidal activity on PANMI (wild proso millet); format: in vivo, Panicum miliaceum; details: post-emergence spray; lowest tested rate with 80% or greater inhibition; about 14 days after treatment
[19] = tested on: dicotyledonous species; assay: Pre-emergence test (later test), average GR80 on dicotyledonous species; format: in vivo; details: average over dicotyledonous species
From the text: (§3) All such uses, and the biological activity enabling such uses, are embraced by the term “herbicidal” herein. Tables 15 and 16 summarize results of tests conducted as described below to determine the pre-emergence herbicidal activity, in the form of a GR80 value, of illustrative compounds of this invention. […] Where herbicidal activity was evident but 80% inhibition was not achieved at the highest rate tested (typically 1000 g/ha), an asterisk (*) is shown in the following tables. Herbicidal activity evident in the form of symptoms of phytotoxicity, in the absence of at least 80% inhibition at any rate, is indicated in the tables by “phyto”. A blank cell in the following tables indicates no herbicidal or phytotoxic response at any rate tested.
(§4) The pre-emergence tests were conducted by the following procedure. Topsoil was sieved to pass through a 1.27 cm screen. Fertilizer was added to the topsoil and the mixture was then sterilized by heating. The topsoil mixture was placed in a pot and compacted to a depth of 1.0 to 1.25 cm from the top of the pot. Seeds of each of several monocotyledonous and dicotyledonous annual plant species were placed on top of the soil. […]
(§5) Approximately 14 days after planting and treating, the plants were observed and herbicidal efficacy recorded as percent inhibition by comparison with untreated plants. […]

[20] = tested on: DATST; assay: Post-emergence herbicidal activity on DATST (jimsonweed); format: in vivo, Datura stramonium; details: post-emergence spray; lowest tested rate with 80% or greater inhibition; about 14 days after treatment
How it was run: as §2

[21] = tested on: CHEAL; assay: Post-emergence herbicidal activity on CHEAL (common lambsquarters); format: in vivo, Chenopodium album; details: post-emergence spray; lowest tested rate with 80% or greater inhibition; about 14 days after treatment
How it was run: as §2

[22] = tested on: monocotyledonous species; assay: Pre-emergence test (later test), GR80 on monocotyledonous species; format: in vivo; details: average over monocotyledonous species
From the text: as §3, §4, §5

[23] = tested on: CHEAL; assay: Pre-emergence herbicidal activity on CHEAL (common lambsquarters); format: in vivo, Chenopodium album
How it was run: as §1

[24] = tested on: POROL; assay: Post-emergence herbicidal activity on POROL (common purslane; table head prints PORAL); format: in vivo, Portulaca oleracea; details: post-emergence spray; lowest tested rate with 80% or greater inhibition; about 14 days after treatment
How it was run: as §2

[25] = tested on: DIGSA; assay: Pre-emergence herbicidal activity on DIGSA (large crabgrass); format: in vivo, Digitaria sanguinalis
How it was run: as §1

[26] = tested on: SORVU; assay: Pre-emergence herbicidal activity on SORVU (shattercane); format: in vivo, Sorghum vulgare
How it was run: as §1

[27] = tested on: AMARE; assay: Post-emergence herbicidal activity on AMARE (redroot pigweed); format: in vivo, Amaranthus retroflexus; details: post-emergence spray; lowest tested rate with 80% or greater inhibition; about 14 days after treatment
How it was run: as §2

[28] = tested on: PANMI; assay: Pre-emergence herbicidal activity on PANMI (wild proso millet); format: in vivo, Panicum miliaceum
How it was run: as §1

[29] = tested on: DATST; assay: Pre-emergence herbicidal activity on DATST (jimsonweed); format: in vivo, Datura stramonium
How it was run: as §1

[30] = tested on: ABUTH; assay: Post-emergence herbicidal activity on ABUTH (velvetleaf); format: in vivo, Abutilon theophrasti; details: post-emergence spray; lowest tested rate with 80% or greater inhibition; about 14 days after treatment
How it was run: as §2

[31] = tested on: SORVU; assay: Post-emergence herbicidal activity on SORVU (shattercane); format: in vivo, Sorghum vulgare; details: post-emergence spray; lowest tested rate with 80% or greater inhibition; about 14 days after treatment
How it was run: as §2

[32] = tested on: BRAPP; assay: Pre-emergence herbicidal activity on BRAPP (broadleaf signalgrass); format: in vivo, Brachiaria platyphylla
How it was run: as §1

[33] = tested on: SOLNI; assay: Pre-emergence herbicidal activity on SOLNI (black nightshade); format: in vivo, Solanum nigrum
How it was run: as §1

[34] = lowest tested rate giving 80% or greater inhibition, approx. 14 days after planting and treating, greenhouse
[35] = racemic mixture vs enantiomers test, rates tested 1000, 650, 300, 200, 100, 65, 30 and 10 g/ha, lowest rate with 80% or greater inhibition

CC(CNC(=O)c1cccc(C(F)(F)F)c1)NC(=O)c1cccc(C(F)(F)F)c1 (stereo not shown) [Example 5, N,N′-(1,2-propanediylbis)-3-(trifluoromethyl)benzamide]
Pre-emergence activity (GR80) on SORHA [1, 34]: phyto
Pre-emergence activity (GR80) SORHA [1, 35]: phyto
Post-emergence activity (GR80) PANDI [2]: [empty]
Post-emergence activity (GR80) SETFA [3]: [empty]
Pre-emergence activity (GR80) on SETFA [4, 34]: * (Where herbicidal activity was evident but 80% inhibition was not achieved at the highest rate tested (typically 1000 g/ha), an asterisk (*) is shown)
Pre-emergence activity (GR80) SETFA [4, 35]: phyto
Pre-emergence activity (GR80) on PANDI [5, 34]: 500 g/ha
Pre-emergence activity (GR80) PANDI [5, 35]: 650 g/ha
Pre-emergence activity (GR80) on PORAL [6, 34]: 250 g/ha
Pre-emergence activity (GR80) PORAL [6, 35]: 650 g/ha
Pre-emergence activity (GR80) on CONAR [7, 34]: phyto
Pre-emergence activity (GR80) CONAR [7, 35]: phyto
Post-emergence activity (GR80) SORHA [8]: [empty]
Pre-emergence activity (GR80) on ECHCG [9, 34]: phyto
Pre-emergence activity (GR80) ECHCG [9, 35]: phyto
Post-emergence activity (GR80) CONAR [10]: 750 g/ha
Post-emergence activity (GR80) BRAPP [11]: [empty]
Post-emergence activity (GR80) ECHCG [12]: [empty]
Post-emergence activity (GR80) DIGSA [13]: [empty]
Pre-emergence activity (GR80) on AMARE [14, 34]: 125 g/ha
Pre-emergence activity (GR80) AMARE [14, 35]: 65 g/ha
Post-emergence activity (GR80) SOLNI [15]: 1000 g/ha
Pre-emergence activity (GR80) on ABUTH [16, 34]: 1000 g/ha
Pre-emergence activity (GR80) ABUTH [16, 35]: * (Where herbicidal activity was evident but 80% inhibition was not achieved at the highest rate tested (typically 1000 g/ha), an asterisk (*) is shown)
Pre-emergence activity (GR80) on CIRAR [17, 34]: 250 g/ha
Pre-emergence activity (GR80) CIRAR [17, 35]: * (Where herbicidal activity was evident but 80% inhibition was not achieved at the highest rate tested (typically 1000 g/ha), an asterisk (*) is shown)
Post-emergence activity (GR80) PANMI [18]: [empty]
average pre-emergence GR80 on dicotyledonous species [19]: 535 g/ha
Post-emergence activity (GR80) DATST [20]: 125 g/ha
Post-emergence activity (GR80) CHEAL [21]: 500 g/ha
pre-emergence GR80 on monocotyledonous species [22]: 1041 g/ha
Pre-emergence activity (GR80) on CHEAL [23, 34]: 250 g/ha
Pre-emergence activity (GR80) CHEAL [23, 35]: 100 g/ha
Post-emergence activity (GR80) PORAL [24]: 750 g/ha
Pre-emergence activity (GR80) on DIGSA [25, 34]: 250 g/ha
Pre-emergence activity (GR80) DIGSA [25, 35]: 200 g/ha
Pre-emergence activity (GR80) on SORVU [26, 34]: phyto
Pre-emergence activity (GR80) SORVU [26, 35]: phyto
Post-emergence activity (GR80) AMARE [27]: 250 g/ha
Pre-emergence activity (GR80) on PANMI [28, 34]: phyto
Pre-emergence activity (GR80) PANMI [28, 35]: 650 g/ha
Pre-emergence activity (GR80) on DATST [29, 34]: 500 g/ha
Pre-emergence activity (GR80) DATST [29, 35]: 1000 g/ha
Post-emergence activity (GR80) ABUTH [30]: 1000 g/ha
Post-emergence activity (GR80) SORVU [31]: [empty]
Pre-emergence activity (GR80) on BRAPP [32, 34]: * (Where herbicidal activity was evident but 80% inhibition was not achieved at the highest rate tested (typically 1000 g/ha), an asterisk (*) is shown)
Pre-emergence activity (GR80) BRAPP [32, 35]: phyto
Pre-emergence activity (GR80) on SOLNI [33, 34]: 750 g/ha
Pre-emergence activity (GR80) SOLNI [33, 35]: 300 g/ha
